Measurements: patent publication EP2133323B1, “The production and use of 3,5-dicaffeoyl-4-malonylquinic acid” (I.R.B. Istituto Di Ricerche Biotecnologiche S.r.l., priority 2008, dated 2009)
Blank lines part the entries; values can stand above or below the molecule they belong to.

Key:
[1] = Antioxidant activity by the DPPH method; format: biochemical
Source text: The antioxidant activity of the compound 3,5-dicaffeoyl-4-malonylquinic acid compared to known molecules such as ascorbic acid and rutin, has been determined by means of the DPPH method, according to the instructions reported in J. Buenger et al.; International Journal of Cosmetic Science, 2006, 28: 135-146.

[2] = tested on: DNBS induced colitis model; assay: DNBS induced colitis model in rats (anti-inflammatory activity); format: in vivo, Sprague-Dawley rats; settings: four days after DNBS
Source text: Evaluation of the anti- inflammatory activity of 3, 5-dicaffeoyl-4-malonylquinic acid has been determined on an in vivo induced colitis model. Colitis has been induced in rats using a colon inflammation model, stimulated by DNBS ([…] acid). After 4 days of induction of inflammation, the following parameters have been evaluated: determination of colon damage by means of morphological and histological analysis; determination of myeloperoxidase activity and determination of body weight. The animals used have been subdivided into four experimental groups (10 Sprague-Dawley rats weighing 200-250 g in each group) : • one control group, to which only carrier has been administered (CTR); • one group, to which DNBS plus carrier has been administered (DNBS); • one group, to which DNBS and 3,5-dicaffeoyl-4-malonylquinic acid has been administered: the compound has been administered orally at a concentration of 2 mg/kg for 4 consecutive days following the administration of DNBS; • one group, to which DNBS and 3,5-dicaffeoyl-4-malonylquinic acid has been administered: the compound has been administered orally at a concentration of 0.2 mg/kg for 4 consecutive days following the administration of DNBS.
Four days after the administration of DNBS, the following investigations have been conducted: • evaluation of colon damage by means of morphological and histological analysis (a score is assigned on the basis of the damage observed); • evaluation of myeloperoxidase activity and • determination of body weight.

[3] = tested on: Malassezia furfur DSMZ4167; assay: Multiple dilution antimicrobial assay, CFU count in culture-broth; format: cell-based; settings: for T7d: sample at 7 days, 30°C
Procedure: (§1) With the aim of identifying any potential antimicrobial activity in the compound 3,5-dicaffeoyl-4-malonylquinic acid, microbiological assays, generally known as multiple dilution assays, have been prepared. The results obtained from said assays have shown the antimicrobial activity of the compound against the following strains: • Staphylococcus aureus ATCC6538 • Malassezia furfur DSMZ4167
(§2) The compound has been tested at concentrations of 5 mg/ml, 2 mg/ml and 1 mg/ml.
(§3) The microbial strains used for testing have been inoculated into culture-broth (in Tryptone soy broth medium, for Malassezia furfur the culture medium has been supplemented with 2 ml/100 ml of olive oil) containing the test compound at the concentrations described above. In parallel with these tests, culture broths containing the microbial strain alone have been prepared (controls). The culture-broths have been incubated at 30°C for a period of 7 days. Samples of the various culture-broths have been taken at 0 and 7 days, with the aim of counting the number of CFU/ml in relation to the various microbial strains, by plating the cultures on solid medium. A certain number of serial dilutions have been prepared for each sample in order to determine the microbial load of each culture-broth. Each dilution has been assayed in triplicate on solid medium. Then number of CFUs reported in the table is the mean of the counts performed on the triplicate assays. Table 4: the effect of 3,5-dicaffeoyl-4-malonylquinic acid on the growth of Staphylococcus aureus ATCC 6538

[4] = tested on: Staphylococcus aureus ATCC6538; assay: as above; format: cell-based
Procedure: as §1, §2, §3

[5] = UV absorption (sun-screen activity), spectrophotometry 250-400 nm; format: physicochemical
Source text: This example reports the test to determine the UV absorption of the molecule 3,5-dicaffeoyl-4-malonylquinic acid compared to a commercially available molecule widely used as a sun screen (PARSOL MCX).
The compounds have been examined in an aqueous solution of: • 0.2 M phosphate buffer pH 5.0 • 0.1 M HCl solution at pH 1.0.
The pH 5.0 buffer has been selected as the condition used most frequently in the preparation of sun screens. The pH 1.0 solution has been examined in order to also observe the stability of the compounds at extreme pH values.
The analyses have been conducted using a Shimadzu model UV 1601 spectrophotometer, analysing the spectrum from 250 nm to 400 nm in order to ascertain the absorption of UVA and UVB.
The results report the absorption values at maximum wavelength (λ Max) and at 330 nm, this being the wavelength most frequently used for quantitative measurements for the products in question.
The values are expressed in: • specific extinction, corresponding to the extinction at the given λ for a solution at a concentration of 1.0 µg/mL. • Epsilon = the molar absorption, calculated using the formula Epsilon = A/C*L [formula] where A is the absorption value in mAU, C is the concentration of the solution in moles and L is the path length of the solutions in cm (always 1 cm).

[6] = tested on: mouse B16F1 melanoma cells; assay: Inhibition of MSH-stimulated melanin production (depigmenting activity); format: cell-based; settings: 1 mg/mL, 100 nM MSH, 24 hours; for % inhibition vs AK: relative to kojic acid
Procedure: The bleaching activity of the compound obtained by cell culture of Centella asiatica has been determined by evaluating the inhibition of melanin production, stimulated by the addition of MSH (melanocyte stimulating hormone) in mouse B16F1 melanoma cells. The test has been prepared by seeding mouse B16F1 melanoma cells in DMEM culture medium + 10% FBS in 25 cm^2 flasks. On reaching 80% confluency, the culture medium has been replaced with conditioned medium (containing 100 nM MSH and the test compounds). The cells in the conditioned medium have been incubated for 24 hours at 37°C and 5% CO2. On termination of incubation, the cells have been washed twice with PBS and then detached using a Trypsin-EDTA solution. After washing twice with PBS, the detached cells have been resuspended in the same solution. A small aliquot has been removed from the suspension for the purpose of conducting the MTT cell viability test, while the remainder has been used to extract the cell melanin content. The melanin content has been determined by spectrophotometric measurements at 405 nm, and calculated by means of a calibration curve obtained using a melanin standard. The optical density value obtained has been normalised for the number of viable cells obtained by means of the MTT test. The percentage inhibition of melanin production has been calculated from the percentage ratio between the value obtained from the cells treated with the extracts, and the value obtained from the control cells, treated with MSH alone. The results obtained from testing the compound at a concentration of 1 mg/ml compared to kojic acid at the same concentration, are reported in table 8 below: TABLE 8

type-2 HSV virus = assay: Anti-HSV2 antiviral activity in Vero cell model (XTT read-out); format: cell-based, type-2 Herpes simplex virus (HSV) strain 333; settings: at a concentration of 200 µg/ml; compared to positive control (infected, no test substance); MOI 0.1; 72 hours
Procedure: The antiviral activity of 3,5-dicaffeoyl-4-malonylquinic acid towards type-2 HSV virus has been assayed using a Vero cell model. The assay has been conducted using acyclovir as a comparator.
Vero cells have been seeded into 96 well plates at a concentration of 5x10^4 cells/well. After 4 hours incubation at 37°C in 5% CO2, the cells have been infected with strain 333 of the type-2 Herpes simplex virus (HSV) at a multiplicity of infection (MOI) of 0.1 infective viral particles/cell. Various concentrations of 3,5-dicaffeoyl-4-malonylquinic acid (CA1) have been added in triplicate to the cell monolayers. Some wells have been infected in the absence of test compound (POSITIVE CONTROL), others have not been infected and have not been treated with the test compound (NEGATIVE CONTROL), others still have been treated with various concentrations of acyclovir (ACYC), representing the comparator substance. The infected cells have then been incubated in medium plus 2% FBS for 72 hours. On completion of said incubation period, the medium has been removed from each well by aspiration. Following washing in PBS and aspiration, 50 µl of a solution consisting of […] and 1 mg/ml XTT has been added to each well. […] The optical density has been measured using an ELISA plate reader set at a wavelength of 450 nm and 630 nm.

metalloproteinases (MMP) = assay: Metalloproteinase inhibition, 3D model with type-1 collagen gel and BALB 3T3 fibroblasts (hydroxyproline content); format: cell-based; settings: 48 hours; at higher concentrations collagen increases only through reduced cell number
Source text: Metalloproteinase inhibitory activity has been evaluated by preparation of an in vitro assay known as the "3D model" envisaging the use of a type-1 collagen gel and BALB 3T3 fibroblast cells. In this assay model, fibroblasts acquire the property of secreting metalloproteinases (MMP), such as collagenase, gelatinase, elastase etc. through modulation by cytokines or other inflammatory mediators (Lim H., Kim HP, Planta Medica, 2007, 12:1267-1274). Balb 3T3 cells (4*10^6 cells/ms) are inoculated in a culture medium (DMEM + 10% FBS) containing a type 1 collagen 3D gel supplemented with increasing concentrations of the test compound. After incubation for 48 hours at 37°C in 5% CO2, the collagen content is measured by means of an indirect method (hydroxyproline content); in parallel, the effect of treatment on cell viability, or on the growth inhibitory effect, is also assessed. The result is expressed as the %age of hydroxyproline present in the 3D gel, compared to the control, or untreated, culture (NB: the collagen content in the absence of cells is reported as positive control). From the results obtained, it is evident that treatment with 3,5 dicaffeoyl-4-malonylquinic acid is effective up to a concentration of 400 µg/ml. For higher concentrations, the collagen content increases purely as a result of the reduced number of cells.

[7] = DNBS + 0.2 mg/kg orally for 4 consecutive days
[8] = DNBS + 2 mg/kg orally for 4 consecutive days
[9] = pH 1.0, second line, printed beside 326 nm (330 nm line empty)
[10] = pH 5.0 (0.2 M phosphate buffer), λ Max line
[11] = pH 5.0, second line, printed beside 325 nm (330 nm line empty)

SMILES: O=C(O)CC(=O)OC1C(OC(=O)/C=C/c2ccc(O)c(O)c2)CC(O)(C(=O)O)CC1OC(=O)/C=C/c1ccc(O)c(O)c1 (stereo not shown) [3,5-dicaffeoyl-4-malonylquinic acid]
- IC50 [1]: 3.76 µM
- Histological score [2, 7]: 1.60
- Myeloperoxidase activity [2, 7]: 513.00 U/g fresh weight
- Histological score [2, 8]: 1.55
- Myeloperoxidase activity [2, 8]: 486.90 U/g fresh weight
- T7d ([3]; 2 mg/ml): <100 CFU/ml
- T7d ([3]; 5mg/ml): <100 CFU/ml
- antimicrobial activity ([3]; at a concentration of 2 mg/ml): exerts antimicrobial activity
- T7d ([4]; 5mg/ml, sample at 7 days, 30°C): <100 CFU/ml
- antimicrobial activity ([4]; at a concentration of 5 mg/ml): exerts antimicrobial activity
- Epsilon ([5]; pH 1.0 (0.1 M HCl), λ Max line): 28.539
- Spec. abs. (1 µg/ml) ([5]; pH 1.0 (0.1 M HCl), λ Max line): 47.9 mAU
- Epsilon [5, 9]: 28.138
- Spec. abs. (1 µg/ml) [5, 9]: 47.2 mAU
- Epsilon [5, 10]: 30.602
- Spec. abs. (1 µg/ml) [5, 10]: 51.3 mAU
- Epsilon [5, 11]: 29.972
- Spec. abs. (1 µg/ml) [5, 11]: 50.3 mAU
- % inhibition ([6]; melanin production): 33.8%
- % inhibition vs AK [6]: 48%
- antiviral activity (type-2 HSV virus): good antiviral activity
- concentration up to which treatment is effective (collagen content, hydroxyproline) (metalloproteinases (MMP)): ≤ 400 µg/mL

- IC50 [1]: 1 µM
SMILES: O=C1O[C@H]([C@@H](O)CO)C(O)=C1O [Ascorbic acid, reference compound]

SMILES: O=c1cc(CO)occ1O [Kojic acid, reference compound]
- inhibition at 1000 µg/mL ([6]; Mus musculus, B16-F1, melanin production): 70%
- % inhibition vs AK [6]: 100%
